In one assay the test system is Blood. Kind of assay: Inhibition of LPS-induced TNFalpha production in human whole blood after 1 hr by ELISA. In kind it is functional, tissue-based.
Assay [1] addresses Disintegrin and metalloproteinase domain-containing protein 17 (Homo sapiens, UniProt P78536).
Description: Inhibition of TACE catalytic domain by FRET assay

Each structure is given as a SMILES string.

Disintegrin and metalloproteinase domain-containing protein 17, sequence (P78536 whole entry, the tested form may be a part): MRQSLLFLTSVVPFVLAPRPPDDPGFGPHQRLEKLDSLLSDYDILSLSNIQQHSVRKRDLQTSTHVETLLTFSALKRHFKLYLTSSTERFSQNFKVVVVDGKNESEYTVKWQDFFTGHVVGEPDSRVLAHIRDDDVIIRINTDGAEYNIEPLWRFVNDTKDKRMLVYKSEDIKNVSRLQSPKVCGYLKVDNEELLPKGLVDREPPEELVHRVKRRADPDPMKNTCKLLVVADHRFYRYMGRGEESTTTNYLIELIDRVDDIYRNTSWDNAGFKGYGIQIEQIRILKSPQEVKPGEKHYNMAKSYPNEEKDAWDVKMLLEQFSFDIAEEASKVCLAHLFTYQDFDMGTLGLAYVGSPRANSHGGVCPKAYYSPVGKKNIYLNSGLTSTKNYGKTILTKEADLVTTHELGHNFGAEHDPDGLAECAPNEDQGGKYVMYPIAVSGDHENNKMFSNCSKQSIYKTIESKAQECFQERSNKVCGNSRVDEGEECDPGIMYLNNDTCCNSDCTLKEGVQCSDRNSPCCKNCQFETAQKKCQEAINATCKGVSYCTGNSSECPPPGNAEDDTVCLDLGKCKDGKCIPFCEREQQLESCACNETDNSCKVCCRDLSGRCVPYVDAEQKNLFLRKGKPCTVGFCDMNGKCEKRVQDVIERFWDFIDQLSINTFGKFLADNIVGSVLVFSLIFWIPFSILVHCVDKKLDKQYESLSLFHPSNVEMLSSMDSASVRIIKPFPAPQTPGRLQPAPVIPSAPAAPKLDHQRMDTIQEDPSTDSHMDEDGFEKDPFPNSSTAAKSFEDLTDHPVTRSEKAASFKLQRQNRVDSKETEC

By IC50 is commonly meant the concentration needed to halve the response being measured. By Ki is commonly meant a dissociation constant, usually derived from enzyme kinetics or from competition with a known ligand. In the assay on Blood, `O=C(NO)[C@H]1C[C@@]12CC(c1ccc(OCc3cc(-c4ccccc4)nc4ccccc34)c(F)c1)NC2=O` (mixture of isomers) gave an IC50 above 100 nM. Further, the affinity in assay [1] corresponds to a Ki of 6.7 nM. The molecule `CN1C(=O)[C@@]2(CC1c1ccc(OCc3cc(-c4ccccc4)nc4ccccc34)c(F)c1)C[C@@H]2C(=O)NO` (mixture of isomers) registered a Ki in assay [1] of 137 nM. That is a sub-micromolar value. Still for that read-out and setting: next, `COC(=O)[C@H]1C[C@@]12CC(c1ccc(OCc3cc(-c4ccccc4)nc4ccccc34)c(F)c1)N(C)C2=O` (mixture of isomers): above 50000 nM; `CN1C(=O)[C@@]2(CC1c1ccc(OCc3cc(-c4ccccc4)nc4ccccc34)c(F)c1)C[C@@H]2C(=O)O` (mixture of isomers): 94 nM. Still for that read-out and setting: as for `O=C(NO)[C@H]1C[C@@]12CC(c1ccc(OCc3cc(-c4ccncc4)nc4ccccc34)cc1)NC2=O` (stereo partly specified), the figure is 33 nM. In the assay on Blood, `O=C(O)[C@H]1C[C@@]12CC(c1ccc(OCc3cc(-c4ccccc4)nc4ccccc34)c(F)c1)NC2=O` (mixture of isomers) returned an IC50 above 100 nM. This molecule also yielded a Ki in assay [1] of 40 nM. The molecule `O=C(NO)[C@H]1C[C@@]12CC(c1ccc(OCc3cc(-c4cccnc4)nc4ccccc34)cc1)NC2=O` (mixture of isomers) yielded a Ki in assay [1] of 32 nM. As for `O=C(O)[C@H]1C[C@@]12CC(c1ccc(OCc3cc(-c4cccnc4)nc4ccccc34)cc1)NC2=O` (mixture of isomers), the Ki in assay [1] stood at 3220 nM. Molecule `O=C(O)[C@H]1C[C@@]12CC(c1ccc(OCc3cc(-c4ccccc4)nc4ccccc34)cc1)NC2=O` (mixture of isomers) yielded an IC50 in the assay with Blood above 100 nM. Moreover, affinity in assay [1] was put at a Ki of 143 nM. The matching figures for `O=C(NO)[C@H]1C[C@@]12CC(c1ccc(OCc3cc(C(F)(F)F)nc4ccccc34)cc1)NC2=O` (mixture of isomers): above 100 nM and 53 nM.

The molecule `Cc1cc(COc2ccc(C3C[C@@]4(C[C@@H]4C(=O)NO)C(=O)N3)cc2)c2ccccc2n1` (stereo partly specified) registered a Ki in assay [1] of 32 nM.

Molecule `O=C(NO)[C@H]1C[C@@]12CC(c1ccc(OCc3cc(-c4ccccc4)nc4ccccc34)cc1)NC2=O` (mixture of isomers) showed an IC50 in the assay on Blood above 100 nM. The molecule also gave a Ki in assay [1] of 30 nM. The molecule `O=C(O)[C@H]1C[C@@]12CC(c1ccc(OCc3cc(C(F)(F)F)nc4ccccc34)cc1)NC2=O` (mixture of isomers) returned an IC50 in the assay on Blood above 100 nM. Besides, the Ki in assay [1] was found to be 2140 nM. Consider `Cc1cc(COc2ccc(C3C[C@@]4(C[C@@H]4C(=O)O)C(=O)N3)cc2)c2ccccc2n1` (mixture of isomers), for which, in assay [1], the affinity corresponds to a Ki of 3070 nM. On the same count and under the same terms, next, `O=C(O)[C@H]1C[C@@]12CC(c1ccc(OCc3cc(-c4ccncc4)nc4ccccc34)cc1)NC2=O` (mixture of isomers): 673 nM.

Values taken from ChEMBL document CHEMBL1139321, “Discovery of novel spirocyclopropyl hydroxamate and carboxylate compounds as TACE inhibitors” (Bioorg Med Chem Lett, 2009).
